In US20050209310A1, “Methods for modulating tumor growth and metastasis” (priority 2000, published 2005):

Key:
[1] = system: M5076 murine fibrosarcoma; assay: In vivo antitumor testing, sc M5076 murine fibrosarcoma; conditions: for complete response (disappearance of tumors): CA1P + carboplatin vs either agent alone (FIG. 11); for minimum effective dose required for synergistic enhancement: in combination with carboplatin (FIG. 10)
Protocol: (§1) The following protocols are provided to facilitate the practice of Examples I and II. • Drug administration: For administration to rodents, CA4P was dissolved in normal saline (0.9% NaCl). Paclitaxel was dissolved in a 50/50 mixture of ethanol and Cremophor® and stored at 4° C.; final dilution of paclitaxel was obtained immediately before drug administration with NaCl 0.9%. Fresh preparation of paclitaxel was employed to avoid precipitation. CPT-11 was dissolved in normal saline. • The volume of all compounds injected was 0.01 ml/g of mice, and 0.005 ml/g of rats. • In Vivo Antitumor Testing: The following tumor models were used: A2780 human ovarian carcinoma, the murine fibrosarcoma M5076 and M5076/ddp (resistant to cisplatin and carboplatin).
(§2) The human tumors were maintained in Balb/c nu/nu nude mice. M5076 and M5076ddp were maintained in C57BL/6 mice. Tumors were propagated as subcutaneous transplants in the appropriate mouse strain using tumor fragments obtained from donor mice.
(§3) The following tumors were passaged in the indicated host strain of mouse: murine M5076 fibrosarcoma (M5076) in C57B1/6 mice; human A2780 ovarian carcinomas in nude mice. Tumor passage occurred biweekly for murine tumors and approximately every two to three weeks for the human tumor line. With regard to efficacy testing, M5076 and M507 6ddp tumors were implanted in (C57B1/6×DBA/2)F1 hybrid mice, and human tumors were implanted in nude mice. All tumor implants for efficacy testing were subcutaneous (sc).
The required numbers of animals needed to detect a meaningful response were pooled at the start of the experiment and each was given a subcutaneous implant of a tumor fragment (˜50 mg) with a 13-gauge trocar. For treatment of early-stage tumors, the animals were again pooled before distribution to the various treatment and control groups. For treatment of animals with advanced-stage disease, tumors were allowed to grow to the predetermined size window (tumors outside the range were excluded) and animals were evenly distributed to various treatment and control groups. Treatment of each animal was based on individual body weight. Treated animals were checked daily for treatment related toxicity/mortality. Each group of animals was weighed before the initiation of treatment (Wt1) and then again following the last treatment dose (Wt2). The difference in body weight (Wt2−Wt1) provides a measure of treatment-related toxicity.
Tumor response was determined by measurement of tumors with a caliper twice a week, until the tumors reach a predetermined “target” size of 1 gm. Tumor weights (mg) were estimated from the formula: Tumor weight=(length×width2)÷2 Antitumor activity was evaluated at the maximum tolerated dose (MTD) which is defined as the dose level immediately below which excessive toxicity (i.e. more than one death) occurred. […] When death occurs, the day of death was recorded.
Tumor response end-point was expressed in terms of tumor growth delay (T−C value), defined as the difference in time (days) required for the treated tumors (T) to reach a predetermined target size compared to those of the control group (C).
To estimate tumor cell kill, the tumor volume doubling time was first calculated with the formula: TVDT=Median time (days) for control tumors to reach target size−Median time (days) for control tumors to reach half the target size and, Log cell kill=T−C÷(3.32×TVDT).
Statistical evaluations of data were performed using Gehan's generalized Wilcoxon test.

[2] = system: ES2 human clear cell ovarian carcinoma; assay: Multi-drug resistant ES2 ovarian carcinoma model, tumor size and survival; format: in vivo, Fox Chase CB-17 SCID mice
Protocol: The multi-drug resistant ES2 human clear cell ovarian carcinoma was established by subcutaneous injection of cultured ES2 cells in Fox Chase CB-17 SCID mice. In one experiment, tumor-bearing mice were administered CA4P at a dose of 100 mg/kg (Group II), saline carrier only (Group I), an intraperitoneal (i.p.) injection of paclitaxel at a dose of 9 mg/kg, followed 30 minutes later by an infusion of carboplatin at a dose of 30 mg/kg […], or CA4P (100 mg/kg) followed 24 hours later by paclitaxel and carboplatin as in Group II (Group IV). Treatment with anticancer agents was performed once a week for 4 weeks (i.e. on Day 11, 19, 26, and 33). Tumors in each treatment group (n=2) were measured every 4 days by width and length. Tumor size (i.e. volume) was calculated according to the following formula: Length×Width^2×0.4.
In a second experiment, tumor-bearing mice were administered CA1P and/or carboplatin and paclitaxel in the same treatment regime as the first experiment.

[3] = system: N87 human gastric carcinoma; assay: Single agent antitumor activity, N87 xenograft model; conditions: in vivo
[4] = system: A2780 human ovarian tumor xenografts; assay: Tumor perfusion studies of CA1P, A2780 xenografts
[5] = system: A2780 human ovarian carcinoma; assay: In vivo antitumor testing, A2780 human ovarian carcinoma xenograft
Protocol: as §1, §2, §3
The required numbers of animals needed to detect a meaningful response were pooled at the start of the experiment and each was given a subcutaneous implant of a tumor fragment (˜50 mg) with a 13-gauge trocar. For treatment of early-stage tumors, the animals were again pooled before distribution to the various treatment and control groups. For treatment of animals with advanced-stage disease, tumors were allowed to grow to the predetermined size window (tumors outside the range were excluded) and animals were evenly distributed to various treatment and control groups. […]
Tumor response was determined by measurement of tumors with a caliper twice a week, until the tumors reach a predetermined “target” size of 1 gm. Tumor weights (mg) were estimated from the formula: Tumor weight=(length×width2)÷2 Antitumor activity was evaluated at the maximum tolerated dose (MTD) which is defined as the dose level immediately below which excessive toxicity (i.e. more than one death) occurred. […] When death occurs, the day of death was recorded. […]
To estimate tumor cell kill, the tumor volume doubling time was first calculated with the formula: TVDT=Median time (days) for control tumors to reach target size−Median time (days) for control tumors to reach half the target size and, Log cell kill=T−C÷(3.32×TVDT). […]

[6] = system: N87 gastric cancer tumor xenografts; assay: Tumor perfusion studies of CA1P, N87 xenografts
[7] = system: sc A2780 human ovarian carcinoma; assay: Tumor perfusion, Evans blue dye uptake assay, rats; format: in vivo; conditions: iv, optimal dose, Evans blue injected an hour later (FIG. 5B)
Protocol: (§4) The effects of CA4P disodium salt on tumor perfusion were also studied using the Evans blue dye uptake assay. Mice or rats bearing sc A2780 human ovarian carcinoma were administered an iv dose of CA4P disodium salt. An hour later, Evans blue was injected iv. The amount of Evans blue accumulated in the tumor is proportional to the blood flow through the tumor.

[8] = Hematological analysis of whole blood, Phase I trial of CA4P; format: in vivo, human
Protocol: Hematological analysis was performed on whole blood obtained from patients participating in a Phase I trial of CA4P (see Rustin et al., J. Clin. Oncol. (2003)). All patients had histologically confirmed tumors and were either not amenable to standard curative therapy or were refractory to conventional therapy. Blood work was obtained from each patient 1 minute prior to treatment, every 15 minutes for the first hour post-treatment, and at 1.5, 2, 4, 8, 12 and 24 hours following infusion with the first dose of CA4P (52-114 mg/m^2). Art-recognized hematology methods were used in the analysis.
All full or differential blood cell counts were performed using a hematology flow cytometer (Technicon H2, Bayer Inc.). Total white blood cell (“WBC” or leukocyte) and red blood cell (“RBC” or erythrocyte) counts were established using direct laser flow cytometry. A differential count for leukocyte cells of myeloid origin (e.g. eosinophils, neutrophils, monocytes) was obtained by fluorescent flow cytometry of cells stained for myeloperoxidase. Unstained cells were assumed to be lymphocytes and basophils. Lymphocyte counts were obtained by subtracting those cells that stained […] for a second, basophil-specific cell stain. Mean Corpuscular Volume (MCV) and Mean Corpuscular Haemoglobin (MCH) were also obtained by laser flow cytometry. The haematocrit (Hct) was calculated from the RBC count and the MCV. The coagulant status of each blood sample was determined by measuring fibrinogen content, prothrombin time, and kaolin partial thromboplastin time (when kaolin is used instead of micronised silica as the activator).
Cell counts were averaged from nineteen patients treated with a range of CA4P doses (52 to 114 mg/m^2). The results of the complete hematological analysis obtained at 4 and 24 hours post-treatment are presented in FIG. 18 as a percentage of the corresponding pretreatment value. […] The increase in white blood cells occurred despite a significant decrease in lymphocyte count (i.e. T and B-lymphocytes). […] The more than 2-fold increase in neutrophils and more than 20% decrease in lymphocytes was transient however, as white blood cell counts returned to normal levels within 24 hours of treatment.

[9] = system: sc A2780 human ovarian carcinoma; assay: Tumor perfusion, Evans blue dye uptake assay, mice; format: in vivo; conditions: iv, optimal dose, Evans blue injected an hour later (FIG. 5A)
Protocol: as §4

[10] = system: M5076DDP murine fibrosarcoma; assay: In vivo antitumor testing, sc M5076DDP murine fibrosarcoma (resistant to cisplatin and carboplatin); parameters: species or system mice
Protocol: Fresh preparation of paclitaxel was employed to avoid precipitation.
M5076 and M5076ddp were maintained in C57BL/6 mice.
All tumor implants for efficacy testing were subcutaneous (sc).
The MTD was frequently equivalent to OD. When death occurs, the day of death was recorded.
M507 6DDP is a murine fibrosarcoma that has developed resistance to cisplatin and cross-resistance to carboplatin. The in vivo antitumor activity of CA4P or CA1P in combination with each of these platinum coordination compounds and CPT-11 were evaluated in M5076DDP tumor bearing mice.

[11] = 4 hours following treatment, CA4P 52 to 114 mg/m^2, nineteen patients

## COc1cc(/C=C\c2ccc(OC)c(OP(=O)(O)O)c2OP(=O)(O)O)cc(OC)c1OC [CA1P, combretastatin A-1 diphosphate]
[1]
  complete response (disappearance of tumors): not observed
  minimum effective dose required for synergistic enhancement: 4 to 8 mg/kg
[2]; second experiment: CA1P and/or carboplatin and paclitaxel, same regime (FIG. 15)
  control of tumor growth: considerable anti-tumor growth delay
[3]
  single agent activity: improved single agent activity
[4]; A2780 xenografts in mice
  inhibition of tumor blood flow: significantly inhibited tumor blood flow
[4]; daily single agent for ten days, human tumor xenografts in nude mice (N87, A2780; FIG. 9)
  potency of blood flow inhibition relative to CA4P: 5-10 times
[5]; CA1P at MTD 9 mg/kg, ip, q1dx8
  log cell kill (LCK): 2.1 LCK
[5]; CA1P, ip, q1dx8
  maximum tolerated dose (MTD): 9 mg/kg
[6]
  inhibition of tumor blood flow: significantly inhibited tumor blood flow

## COc1ccc(/C=C\c2cc(OC)c(OC)c(OC)c2)cc1OP(=O)(O)O [CA4P, combretastatin A-4 phosphate]
[1]; CA4P administered Q4Dx3, separate experiment
  single agent antitumor activity: no activity
[1]; CA4P single agent
  maximum tolerated dose (MTD) as a single agent: > 250 mg/kg/inj
[1]; in combination with carboplatin (FIG. 3B)
  optimal CA4P dose required for therapeutic synergy: < 90 mg/kg/inj
[1]
  minimum effective dose required for synergistic enhancement: 25 to 50 mg/kg
[2]; first experiment (FIG. 14)
  animals still alive at the conclusion of the experiment: 30%
[2]; first experiment: CA4P 100 mg/kg, paclitaxel 9 mg/kg, carboplatin 30 mg/kg, once a week for 4 weeks (FIG. 13)
  control of tumor growth: not significantly more effective than paclitaxel and carboplatin
[7]
  reduction of tumor blood flow: 87%
[8]; [11]
  decrease in lymphocytes: more than 20%
  increase in neutrophils: more than 2 fold
[8]; 4 hours following treatment, CA4P 52 to 114 mg/m^2, nineteen patients, vs pretreatment
  total white blood cell count: highly significant increase
[8]; after treatment with CA4P
  time for white blood cell counts to return to normal levels: ≤ 24 h
[9]
  reduction of tumor blood flow: 67%
[10]; CA4P single agent, optimal dose 150 mg/kg/inj, iv, everyday x10 (Monday thru Friday), advanced (300 mg) tumors
  log cell kill (LCK): 1.1 LCK
[10]; iv, q4dx3, doses without single agent activity, carboplatin at a range of dose levels (FIG. 7)
  CA4P dose sufficient to enhance the antitumor activity of carboplatin: 12.5-25 mg/m^2
[5]; CA4P at 150 mg/kg, ip
  log cell kill (LCK): 1.1 LCK

## CCc1c2c(nc3ccc(OC(=O)N4CCC(N5CCCCC5)CC4)cc13)-c1cc3c(c(=O)n1C2)COC(=O)[C@]3(O)CC [CPT-11, CPT-11 (irinotecan), reference compound]
[5]; CPT-11 at its MTD
  log cell kill (LCK): 3.3 LCK

## N.N.O=C([O-])C1(C(=O)[O-])CCC1.[Pt+2] [carboplatin, Carboplatin, reference compound]
[1]
  complete response (disappearance of tumors): not observed
[1]; carboplatin alone at MTD 90 mg/kg/inj, iv, Q4Dx3, large sc tumors (300 mg)
  log cell kill (LCK): 1.4 LCK
[1]; carboplatin alone at MTD vs best CA4P + carboplatin combination (FIG. 3A)
  tumor regression / shrinkage: no tumor regression
[1]; carboplatin, iv, Q4Dx3
  maximum tolerated dose (MTD): 90 mg/kg/inj

## N.N.[Cl][Pt][Cl] [cisplatin]
[10]; combination vs single agent cisplatin (FIG. 1)
  shrinkage of tumors following treatment: did not
[10]; injected every 4 days for 3 doses (Q4Dx3)
  maximum tolerated dose (MTD): 7.5 mg/kg
[10]; single agent cisplatin at MTD 7.5 mg/kg, iv, Q4Dx3
  log cell kill (LCK): 0.8 LCK
